The test system of assay [1] is stomach cancer cell line BSG823. The assay can be described thus: Anti-tumor activity in vitro, MTT method. The following applies: 48 h, read-out: BSG823 (IC50/μM). (Tetrazolium assays rely on reduction of a dye to a coloured formazan, in cell work by metabolically active cells.)
Method: (§1) MTT method: the dehydrogenase associated with NADP in the mitochondria of living cell is capable of reducing exogenous MTT into insoluble bluish violet crystal (Formazan), which is precipitated in the cell. […] DMSO or Triple liquid (10% SDS-5% isobutanol-0.01 mol/L HCl) is used to dissolve the crystal in the cell. The OD determined at 570 nm by a microplate reader can reflect the amount of the living cell indirectly.
(§2) The crystal is dissolved with DMSO and the detection is performed on a microplate reader.
The subject of assay [2] is breast cancer cell line MCF-7. The assay can be described thus: Anti-tumor activity in vitro, MTT method. The following applies: Homo sapiens, MCF7, 48 h, read-out: MCF7 (IC50/μM).
Method: as §1, §2

With `CN1CCN(Cc2ccc(NC(=O)c3n[nH]cc3Nc3ncnc4sccc34)cc2)CC1` [Compound I-1, 4-(4-thieno[2,3-d]pyrimidinylamino)-N-(4-((4-methyl-1-piperazinyl)methyl)phenyl)-1H-3-pyrazole carboxamide], the IC50 in assay [1] was 20.7 µM; in assay [2] it was 0.42 µM.

The values above are taken from patent US9550792B2, “Polycyclic substituted pyrazole kinase activity inhibitors and use thereof” (priority 2013, dated 2017).
